This assay is described as follows: The compound was tested for the inhibition of Carboxypeptidase A.
In the case of `O=C(O)[C@H](Cc1ccccc1)C1CC1`, the affinity corresponds to a Ki of 803 µM. Regarding `O=C(O)[C@H](Cc1ccccc1)[C@H]1CN1` (single isomer, unassigned), affinity was put at a Ki of 230 µM. To `O=C(O)[C@@H](Cc1ccccc1)[C@H]1CN1` belongs 120 µM; to `O=C(O)[C@@H](Cc1ccccc1)[C@@H]1CN1` (single isomer, unassigned), 510 µM. For the compound `O=C(O)[C@@H](Cc1ccccc1)C1CC1`, affinity was put at a Ki of 646 µM. As to `O=C(O)C(Cc1ccccc1)C1CC1` (racemic), the affinity corresponds to a Ki of 792 µM. As for `O=C(O)C(Cc1ccccc1)c1c[nH]cn1` (racemic), the inhibition constant (Ki) (as a rule, the equilibrium dissociation constant of an inhibitor or competing ligand from its target) was 0.8 µM. Turning to `O=C(O)[C@H](Cc1ccccc1)[C@@H]1CN1`, the inhibition constant (Ki) stood at 35 µM.

These data come from ChEMBL document CHEMBL1133844, “2-Benzyl-3,4-iminobutanoic acid as inhibitor of carboxypeptidase A” (Bioorg Med Chem Lett, 2001).
